Test results from PMC12304045 (2025).

Legend:
[1] = system: OTC-APT5, amine-terminated (DNA, aptamer) ACGACATTCCGTTGATCTCTCCCTTTTGGGTTGGTGTCGT; assay: DPV aptasensor, [Fe(CN)6]3-/4- probe; conditions: 2 mM MgCl2, 10 mM phosphate buffer pH 7.4
[2] = system: OTC-APT5 (DNA, aptamer) ACGACATTCCGTTGATCTCTCCCTTTTGGGTTGGTGTCGT; assay: circular dichroism; conditions: 100 mM NaCl, 5 mM KCl, 2 mM MgCl2, 2 mM CaCl2; 20 mM tris, 0.05% Tween 20, 25 °C; 2 μM aptamer
[3] = system: OTC-APT5 (DNA, aptamer) ACGACATTCCGTTGATCTCTCCCTTTTGGGTTGGTGTCGT; assay: fluorescence titration; conditions: 100 mM NaCl, 5 mM KCl, 2 mM MgCl2, 2 mM CaCl2; 20 mM tris, 0.05% Tween 20; 200 nM OTC titrated with aptamer; unit likely misprint for nM
[4] = system: OTC-APT5 (DNA, aptamer) ACGACATTCCGTTGATCTCTCCCTTTTGGGTTGGTGTCGT; assay: fluorescence polarization titration; conditions: 100 mM NaCl, 5 mM KCl, 2 mM MgCl2, 2 mM CaCl2; 20 mM tris, 0.05% Tween 20; 200 nM OTC titrated with aptamer
[5] = highest tested 250 ng/mL, signal change <10% of OTC

With `CC1(C)S[C@@H]2[C@H](NC(=O)Cc3ccccc3)C(=O)N2[C@H]1C(=O)O` the binding [1, 5] was “no”.

`CC1(C)S[C@@H]2[C@H](NC(=O)[C@H](N)c3ccccc3)C(=O)N2[C@H]1C(=O)O` was tested, and the binding ([1]; tested at fivefold excess over OTC, signal change <10% of OTC) was “no”.

`CN(C)[C@@H]1C(=O)C(C(N)=O)=C(O)[C@@]2(O)C(=O)C3=C(O)c4c(O)cccc4[C@@](C)(O)[C@H]3C[C@@H]12` was tested, and the binding ([1]; 50 ng/mL, signal similar to OTC) was “yes”.

`CN(C)[C@@H]1C(=O)C(C(N)=O)=C(O)[C@@]2(O)C(=O)C3=C(O)c4c(O)cccc4[C@@](C)(O)[C@H]3[C@H](O)[C@@H]12` was tested, and the binding [2] was “yes”, the Kd [3] was 106 nM and the Kd [4] was 62 nM. The binding ([1]; 50 ng/mL OTC) was “yes”.

`CN[C@@H]1[C@H](O[C@H]2[C@H](O[C@H]3[C@H](O)[C@@H](O)[C@H](N=C(N)N)[C@@H](O)[C@@H]3N=C(N)N)O[C@@H](C)[C@]2(O)C=O)O[C@@H](CO)[C@H](O)[C@H]1O` was tested, and the binding [1, 5] was “no”.

In the case of `NC[C@H]1O[C@H](O[C@H]2[C@H](O)[C@@H](O[C@H]3O[C@H](CO)[C@@H](O)[C@H](N)[C@H]3O)[C@H](N)C[C@@H]2N)[C@H](O)[C@@H](O)[C@@H]1O`, the binding [1, 5] is reported as “no”.
